Earlier results in patent publication US20180071214A1, “Pharmaceutical Oral Dose Formulation and Composition of Matter” (priority 2016, published 2018).

How the values were obtained:
[1] = p-glycoprotein substrate

SMILES: CC[C@]1(O)C[C@@H]2CN(CCc3c([nH]c4ccccc34)[C@@](C(=O)OC)(c3cc4c(cc3OC)N(C)[C@H]3[C@@](O)(C(=O)OC)[C@H](OC(C)=O)[C@]5(CC)C=CCN6CC[C@]43[C@@H]65)C2)C1 [vinblastinee]
- intestinal absorption [1]: negligible intestinal absorption
- tissue effect after intravenous injection: severe tissue irritation and even damage
